Results reported in US6696545B1, “Cytomodulating lipophilic peptides for modulating immune system activity and inhibiting inflammation” (Sangstat Medical Corporation, priority 1997, dated 2004).
Ends that are not written are not given here.

What was measured:
[1] = test system: C57B1/6 heart allograft in CBA mice; experiment: Vascularized fully mismatched heterotopic heart allograft model; assay type: in vivo, mouse; conditions: intraperitoneal
Procedure: The immunosuppressive activity of the bc peptides was evaluated in a vascularized fully mismatched mouse heart allograft model. Specifically, abdominal heterotopic heart transplantation was performed as described previously by Ono and Lindsey, J. Thoracic Cardiovasc. Surg. 7:225 (1969)). CBA mice recipients of C57B1/6 hearts were treated daily with various doses of peptide following organ transplantation. Peptides were dissolved in DMSO and diluted in PBS (final DMSO concentration was 10%) before intraperitoneal administration. Animals were treated starting at the day of transplantation until day five or nine. Graft survival was monitored daily by direct palpation, and rejection was defined as termination of palpable cardiac contractility. The statistical significance of prolongation of heart allograft survival was calculated using the Mann-Whitney test.

recombinant hsc70 = target: T1, recombinant hsc70 (Bos taurus, UniProt P19120); experiment: hsc70 binding ELISA / competition with biotinylated-2702.75-84
T1 construct: purchased Stressgen, Victoria, Canada
Procedure: To determine if bc peptides are capable of binding to hsc70, protein binding assays were performed. Specifically, peptide 2702.75-84 was synthesized in a biotinylated form with biotin attached to the N-terminus via a six carbon spacer. ELISA plates (Nunc Maxisorb, Nunc, USA) were coated with 100 ng/ml of recombinant hsc70 (Stressgen, Victoria, Canada) in 100 mM Na-citrate buffer, pH 4.0 overnight at 4° C. Subsequently, remaining binding sites were blocked by incubating the plates with PBS/0.1% Tween 20 (PBS/Tween; Sigma) for 2 hours at room temperature. Unbound material was removed by washing the plates three times with PBS/Tween. Following the addition of biotinylated 2702.75-84 in PBS/Tween/1% DMSO, the plates were incubated for 2 hours at room temperature, washed three times, incubated with 0.1 μg/ml streptavidin conjugated to horseradish peroxidase (streptavidin-HRP) (Jackson ImmunoResearch Laboratories, West Grove, Pa.) and washed again. Bound streptavidin-HRP was detected using 3 mg/ml o-phenylenediamine (OPD; Sigma) in substrate buffer (SangStat, Menlo Park, Calif.). The reaction was stopped by addition of 1M HCl and absorbance (OD490-OD605) was measured using an ELISA plate reader. Binding of unlabeled peptide was measured in a competition assay. […] Bound biotinylated-2702.75-84 was then detected as described above.

[2] = test system: C57BL/6 neonatal heart allograft in CBA/J recipient mice; experiment: Heterotopic neonatal cardiac transplant into ear pinnae, direct injection into allograft; assay type: in vivo, mouse
Procedure: We next sought to determine if local delivery of bc peptides via plasmid-mediated gene transfer could extend in vivo transplant survival in a murine heterotopic cardiac transplant model. Specifically, C57BL/6 donor neonatal hearts were transplanted subcutaneously into the ear pinnae of CBA/J recipient mice, bc peptide, or 20 μg of plasmid DNA encoding the bc peptide of interest, was injected directly into the allograft at the time of transplantation. Survival of the allografts was determined by electrocardiogram monitoring and rejection was determined as the cessation of cardiac electrical activity. Graft survival is expressed in days (mean±SEM). Statistical significance was determined by an unpaired Student's t-test.

[3] = test system: T-cell proliferation (spleen cells isolated from CBA mice stimulated with anti-CD3 monoclonal antibody); experiment: Antiproliferative activity: anti-CD3 stimulated spleen cells, [3H]-TdR incorporation; assay type: cell-based, mouse; conditions: 3 days
Source text: Adult 6-8 week old male C57BL6/J (B6, […]), Balb/c(H-2^d) and CBA/J (H-2^k) mice were purchased from the Jackson Laboratory, Bar Harbor, Me. They were kept and maintained in the animal facility in the SangStat Medical Corporation according to NIH guidelines and regulations of the Department of Health.
Peptides were synthesized at synt:em (Nimes, France) using an automated peptide synthesizer and Fmoc chemistry. All peptides were synthesized as amides and then converted to acetate salts. Peptides were purified by preparative reverse phase HPLC and shown to be >95% homogenous by analytical reverse phase HPLC. Amino acid content was confirmed by amino acid analysis. Before use, peptides were first dissolved in 1 volume of DMSO (Sigma) followed by addition of 99 volume of culture medium. The final concentration of DMSO in culture was not greater than 0.25%. […]
Spleen cells isolated from CBA mice were then stimulated (2×10^5/well) with anti-CD3 monoclonal antibody (Pharmingen, San Diego) at a final concentration of 0.1 to 1 μg/ml in 96-well, round-bottom microculture plates (Nunc, Denmark). bc peptides at various concentrations were added at the beginning of the culture. […] Cells were then harvested using a Filtermate 196 Harvester (Packard, Downers Grove, Ill.) and the degree of thymidine incorporation was measured using a TopCount Microplate Scintillation Counter (Packard).

[4] = test system: T-cell mediated lysis of EL4 target cells by CBA to B6 effector cells; experiment: Cytotoxic T-cell activity, 51Cr release assay; assay type: cell-based, mouse; conditions: concentrations up to 100 μg/ml, 4-hour incubation
Procedure: To assay the effect of peptides on cytotoxic T cell activity, CBA to B6 effector cells were prepared following a 6-day culture of 4×10^6 CBA spleen cells with 5×10^6 mitomycin-treated B6 spleen cells in wells of a 24 well plate (Nuncion Delta, Nunc, Denmark) in RPMI-1640 with 10% FBS. Effector cells were then harvested and washed. EL4 (H-2^b), a mouse lymphoma induced in C57BL/6N was used as target cells. Cultured EL4 cells were maintained and sub-cultured once every three days […] Effector (E) and target (T) cells were then added into V-shaped tissue culture plates (Nunc, Denmark) at E:T ratios of 3:1, 10:1, 30:1, 100:1, respectively. Peptides were diluted to the working concentrations with R-10 medium and added at the beginning of the 4-hour incubation period. For the determination of maximal release, 1% Triton X-100 was added to separate wells. Plates were then centrifuged for 2 min. to increase cellular contact before the 4-hour incubation period. After incubation, 75 μl supernatant from each well was collected and the amount of ^51Cr was counted using a TopCount Scintillation Counter. The degree of cell lysis was calculated using the formula below: [formula]

[5] = target: T2, heme oxygenase (HO, hsp32) (Mus musculus, UniProt P14901); experiment: Heme oxygenase activity in spleen homogenate (bilirubin formation); assay type: biochemical; conditions: control peptide
T2 construct: Spleen homogenates were used as the source of HO for all activity measurements; from tissue; host or cells: mouse spleen homogenate
T2 sequence (P14901 1-289): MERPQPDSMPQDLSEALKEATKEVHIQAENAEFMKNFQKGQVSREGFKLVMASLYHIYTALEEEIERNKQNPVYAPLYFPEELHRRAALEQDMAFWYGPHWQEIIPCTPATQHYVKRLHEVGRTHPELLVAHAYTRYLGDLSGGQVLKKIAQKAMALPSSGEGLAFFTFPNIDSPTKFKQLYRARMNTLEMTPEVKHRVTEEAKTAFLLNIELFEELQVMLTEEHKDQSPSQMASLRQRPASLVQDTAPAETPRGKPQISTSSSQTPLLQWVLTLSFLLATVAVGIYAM
Procedure: The effect of the bc peptides on hsp32 (heme oxygenase) was evaluated by measuring heme oxygenase (HO) in the presence or absence of bc peptides. Specifically, mouse spleen samples were homogenized on ice in a Tris-Cl lysis buffer (pH 7.4) containing 0.5% Triton X-100 and protease inhibitors. Samples were frozen in small aliquots until use. Spleen homogenates were used as the source of HO for all activity measurements. Biliverdin reductase was purified from rat liver by the method described by Kutty and Maines, J. Biol Chem., 256:3956 (1981). HO activity was measured by mixing 100 μl of spleen homogenate with 0.8 mM NADPH, 0.8 mM glucose-6-phosphate, 1.0 unit G-6-P dehydrogenase, 1 mM MgCl2 and 10 μl of biliverdin reductase at 4° C. The reaction was initiated by the addition of Hemin (20 μl of 2.5 mM). The reaction mixture was incubated at 37° C. in the dark for 30 min. At the end of the incubation period, any insoluble material was centrifuged and supernatants were analyzed for bilirubin concentration by a modified procedure of Hillman and Beyer, Z. Klin. Chem. 5:92 (1981) (Sigma Diagnostics, kit #552). Controls included spleen samples in the absence of the NADPH generating system and all components of the reaction mixture in the absence of the spleen homogenates.

[6] = test system: LPS-induced septic shock in mice; experiment: LPS septic shock model, survival; assay type: in vivo, mouse; conditions: 20 mg/kg peptide in mannitol 16 h before 100 mg/kg LPS
Source text: Administration of LPS to mice provides an accepted animal model for septic shock (see Otterbein et al., Amer. J. Physiol. 272(2):1 (1997), Albrecht et al., Hepatology 26:1553-1559 (1997), Haziot et al., J. Immunol. 154:6529-6532 (1995) and Otterbein et al., Am. J. Respir. Cell Mol. Biol. 13:595-601 (1995)). To provide further evidence of the utility of bc peptides for the treatment of inflammatory responses and inflammatory conditions (such as septic shock), we tested the effect of bc peptides on the survival of mice following administration of LPS thereto. Specifically, mice were treated with 20 mg/kg of control peptide 2705 or bc peptide in mannitol or with mannitol alone. Sixteen hours after administration of the peptide in mannitol or mannitol alone, the mice were injected with 100 mg/kg LPS and survival of the mice was monitored twice daily.

[7] = test system: TNF-α production by RAW264.7 macrophage cells; experiment: LPS-stimulated TNF-α production, ELISA of culture supernatants; assay type: cell-based; conditions: 10 μg/ml LPS, 1 to 100 μM peptide, 24 hours
Procedure: In order to determine the effect of bc peptides on the production of inflammatory cytokines, RAW264.7 macrophage cells were stimulated in culture with 10 μg/ml bacterial lipopolysaccharide (LPS) to produce the inflammatory cytokine tumor necrosis factor-α (TNF-α) (see […] et al., J. Immunol. 153:1674 (1994) and Tonetti et al., Biochem. Biophys. Res. Comm. 230:636-640 (1997)), either in the absence or presence (1 to 100 μM) of test peptide. Following incubation for 24 hours, the amount of TNF-α in the culture supernatents was determined by ELISA.

T1 sequence (P19120 2-650 limits assumed): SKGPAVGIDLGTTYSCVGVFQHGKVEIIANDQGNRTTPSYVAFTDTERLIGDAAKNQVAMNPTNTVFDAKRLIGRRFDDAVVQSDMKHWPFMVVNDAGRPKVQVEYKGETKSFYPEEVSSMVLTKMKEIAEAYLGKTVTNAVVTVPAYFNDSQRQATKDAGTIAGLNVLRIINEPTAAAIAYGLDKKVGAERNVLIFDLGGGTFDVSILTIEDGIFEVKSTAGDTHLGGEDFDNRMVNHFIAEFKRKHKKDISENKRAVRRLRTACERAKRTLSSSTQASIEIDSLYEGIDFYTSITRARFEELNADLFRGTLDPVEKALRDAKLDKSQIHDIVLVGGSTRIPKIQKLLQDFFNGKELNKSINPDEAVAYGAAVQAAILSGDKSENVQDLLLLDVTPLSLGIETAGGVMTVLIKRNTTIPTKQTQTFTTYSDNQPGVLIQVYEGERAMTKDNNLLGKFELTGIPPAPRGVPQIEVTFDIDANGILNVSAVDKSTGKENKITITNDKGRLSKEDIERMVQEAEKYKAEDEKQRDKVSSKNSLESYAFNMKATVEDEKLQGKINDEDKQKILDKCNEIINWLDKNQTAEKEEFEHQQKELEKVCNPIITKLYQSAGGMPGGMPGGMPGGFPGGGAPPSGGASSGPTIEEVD

With `CC[C@H](C)[C@H](NC(=O)[C@H](CCCNC(=N)N)NC(=O)[C@H](CC(C)C)NC(=O)[C@H](CC(N)=O)NC(=O)[C@H](CCC(=O)O)NC(=O)[C@@H](N)CCCNC(=N)N)C(=O)N[C@@H](C)C(=O)N[C@@H](CC(C)C)C(=O)N[C@@H](CCCNC(=N)N)C(=O)N[C@@H](Cc1ccc(O)cc1)C(N)=O` [2702.75-84, Arg-Glu-Asn-Leu-Arg-Ile-Ala-Leu-Arg-Tyr] the “effect on transplant survival over the control treatment” value ([1]; 40 mg/kg/day) was “no observable effect”, the heart allograft survival ([1]; 80 mg/kg/day (days 0-9), PBS/DMSO controls 8±1.4 days) was 10.7±2.6 days and the IC50 (recombinant hsc70; competition with 3 μM biotinylated-2702.75-84, 3 hrs room temperature, read-out: Half maximal inhibition (IC50) of binding of biotinylated-2702.75-84 to hsc70) was 7 ± 3 µM. The “Graft survival (mean±SEM)” value ([2]; 1 μg peptide injected directly into the allograft, untreated controls 13.9±0.9) was 13.3 ± 0.75 days and the “Graft survival (mean±SEM)” value ([2]; 400 μg peptide injected directly into the allograft) was 22.0 ± 0.58 days.
With REDLRTLLRY [compound 2705] the “effect on T-cell proliferation” value [3] was “no effect”, the “effect on T-cell mediated target cell lysis” value [4] was “no effect” and the “effect on HO activity” value [5] was “inactive”. For the same compound, the “survival of mice after LPS” value [6] was “died on day one”.
RVNLPIALRY [D2RP, control peptide] was tested, and the “inhibition of the production of TNF-α” value [7] was “no ability to inhibit”.
With “biotinylated-2702.75-84: peptide 2702.75-84 with biotin attached to the N-terminus via a six carbon spacer” the “binding to hsc70 coated ELISA plates” value (recombinant hsc70; direct binding, streptavidin-HRP detection) was “dose dependent binding”.
